Results: ChEMBL document CHEMBL2029268, “A new high-yield synthetic route to PET CB1 radioligands [11C]OMAR and its analogs” (Bioorg Med Chem Lett, 2012)

Test: Octanol-water distribution coefficient, log P of the compound by HPLC analysis
Format: physicochemical

A logP of 2.29 was found for `[11CH3]Oc1ccc(-c2c(C#N)c(C(=O)NN3CCCCC3)nn2-c2ccccc2Br)cc1` in this work.
A logP of 2.03 was found for `[11CH3]Oc1ccc(-c2c(C#N)c(C(=O)NN3CCCC3)nn2-c2ccccc2Br)cc1` in this work.
